Legend:
[1] = test system: S. aureus DSM 20231; assay: fitness (endpoint OD595 vs no drug) (fraction); higher = more growth
In short: (§1)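 Each well of a 384-well plate received 30 µl of culture at OD595 0.01, or 55 µl for S. pneumoniae. TSB, LB Lennox or CY served as media at 37 °C. OD595 was taken every 30 min for 14 h and corrected by subtracting the first reading. Fitness is the optical density at stationary-phase entry divided by the robust mean of no-drug controls, capped at 1.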

[2] = test system: S. pneumoniae D39V; assay: as above
In short: as §1

[3] = test system: S. aureus Newman; assay: as above
In short: as §1

[4] = test system: B. subtilis 168; assay: as above
In short: as §1

[5] = test system: S. aureus DSM 20231; assay: Bliss interaction score (quartile over a dose matrix) (fitness difference); higher = more antagonism (negative = synergy)
In short: (§2)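 At entry into stationary phase, OD595 was recorded and divided by the robust mean of the no-drug wells on that plate, with any value above 1 set to 1. This gives the fitness measure used throughout. Single-drug fitness was inferred from combination data, and the Bliss score, observed minus product-expected fitness, is shown as quartiles across technical, biological and donor/recipient replicates.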

[6] = test system: S. pneumoniae D39V; assay: as above
In short: as §2

[7] = test system: S. aureus Newman; assay: as above
In short: as §2

[8] = test system: B. subtilis 168; assay: as above
In short: as §2

[9] = first compound 12.5 µg/mL, partner 0.0075 µg/mL
[10] = first compound 12.5 µg/mL, partner 0.03 µg/mL
[11] = first compound 25 µg/mL, partner 0.0075 µg/mL
[12] = first compound 50 µg/mL, partner 0.015 µg/mL
[13] = first compound 12.5 µg/mL, partner 0.0312 µg/mL
[14] = first compound 12.5 µg/mL, partner 0.0625 µg/mL
[15] = first compound 12.5 µg/mL, partner 0.125 µg/mL
[16] = first compound 25 µg/mL, partner 0.0312 µg/mL
[17] = first compound 25 µg/mL, partner 0.0625 µg/mL
[18] = first compound 25 µg/mL, partner 0.125 µg/mL
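For Bliss interaction score (quartile over a dose matrix) in this document: first quartile when negative (synergy) and third quartile when positive (antagonism).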

## O=C(O[C@@H]1Cc2c(O)cc(O)cc2O[C@@H]1c1cc(O)c(O)c(O)c1)c1cc(O)c(O)c(O)c1 [EGCG] + COc1c(N2C[C@@H]3CCCN[C@@H]3C2)c(F)cc2c(=O)c(C(=O)O)cn(C3CC3)c12 [Moxifloxacin]
[1]; [9]
  fitness: 0.686
[1]; first compound 12.5 µg/mL, partner 0.015 µg/mL
  fitness: 0.615
[1]; [10]
  fitness: 0.53
[1]; first compound 12.5 µg/mL, partner 0.06 µg/mL, one replicate
  fitness: 0.636
[1]; first compound 12.5 µg/mL, partner 0.12 µg/mL, one replicate
  fitness: 0.537
[1]; [11]
  fitness: 0.605
[1]; first compound 25 µg/mL, partner 0.015 µg/mL
  fitness: 0.628
[1]; first compound 25 µg/mL, partner 0.03 µg/mL
  fitness: 0.554
[1]; first compound 25 µg/mL, partner 0.06 µg/mL, one replicate
  fitness: 0.584
[1]; first compound 25 µg/mL, partner 0.12 µg/mL, one replicate
  fitness: 0.495
[1]; first compound 50 µg/mL, partner 0.0075 µg/mL
  fitness: 0.629
[1]; [12]
  fitness: 0.594
[1]; first compound 50 µg/mL, partner 0.06 µg/mL, one replicate
  fitness: 0.607
[1]; first compound 50 µg/mL, partner 0.12 µg/mL, one replicate
  fitness: 0.506
[2]; first compound 12.5 µg/mL, partner 0.005 µg/mL
  fitness: 0.942
[2]; first compound 12.5 µg/mL, partner 0.01 µg/mL
  fitness: 0.966
[2]; first compound 12.5 µg/mL, partner 0.02 µg/mL
  fitness: 0.918
[2]; [13]
  fitness: 0.265
[2]; [14]
  fitness: 0.0738
[2]; [15]
  fitness: 0.0322
[2]; first compound 25 µg/mL, partner 0.005 µg/mL
  fitness: 0.947
[2]; first compound 25 µg/mL, partner 0.01 µg/mL
  fitness: 0.973
[2]; first compound 25 µg/mL, partner 0.02 µg/mL
  fitness: 0.933
[2]; [16]
  fitness: 0.152
[2]; [17]
  fitness: 0.0517
[2]; [18]
  fitness: 0.0297
[2]; first compound 50 µg/mL, partner 0.005 µg/mL
  fitness: 0.973
[2]; first compound 50 µg/mL, partner 0.01 µg/mL
  fitness: 0.989
[2]; first compound 50 µg/mL, partner 0.02 µg/mL
  fitness: 0.931
[2]; first compound 50 µg/mL, partner 0.0312 µg/mL
  fitness: 0.499
[2]; first compound 50 µg/mL, partner 0.0625 µg/mL
  fitness: 0.944
[2]; first compound 50 µg/mL, partner 0.125 µg/mL
  fitness: 0.69
[3]; [9]
  fitness: 0.704
[3]; [10]
  fitness: 0.3
[3]; [11]
  fitness: 0.695
[3]; [12]
  fitness: 0.582
[3]; first compound 50 µg/mL, partner 0.03 µg/mL
  fitness: 0.0803
[4]; first compound 6.25 µg/mL, partner 0.0312 µg/mL
  fitness: 0.0635
[4]; first compound 6.25 µg/mL, partner 0.0625 µg/mL
  fitness: 0.0647
[4]; first compound 6.25 µg/mL, partner 0.125 µg/mL
  fitness: 0.0455
[4]; first compound 6.25 µg/mL, partner 2 µg/mL
  fitness: 0.0355
[4]; first compound 6.25 µg/mL, partner 4 µg/mL
  fitness: 0.0375
[4]; first compound 6.25 µg/mL, partner 8 µg/mL
  fitness: 0.0396
[4]; [13]
  fitness: 0.316
[4]; [14]
  fitness: 0.0486
[4]; [15]
  fitness: 0.0337
[4]; first compound 12.5 µg/mL, partner 2 µg/mL
  fitness: 0.0567
[4]; first compound 12.5 µg/mL, partner 4 µg/mL
  fitness: 0.028
[4]; first compound 12.5 µg/mL, partner 8 µg/mL
  fitness: 0.0267
[4]; [16]
  fitness: 0.136
[4]; [17]
  fitness: 0.0468
[4]; [18]
  fitness: 0.032
[4]; first compound 25 µg/mL, partner 2 µg/mL
  fitness: 0.0285
[4]; first compound 25 µg/mL, partner 4 µg/mL
  fitness: 0.0104
[4]; first compound 25 µg/mL, partner 8 µg/mL
  fitness: 0.0587
[5]
  Bliss interaction score: -0.0635
[6]
  Bliss interaction score: -0.0486
[7]
  Bliss interaction score: 0.103
[8]
  Bliss interaction score: 0.04
